Test results from patent US20260199464A1, “COMPOSITIONS AND METHODS FOR ENHANCING CAR-T CELL PERFORMANCE AND FOR CANCER IMMUNOTHERAPY” (The Regents of the University of California, priority 2022, published 2026).

What was measured:
B16-F10 tumors = assay: ZAA combined with anti-PD1 antibody, B16-F10 tumors implanted s.c. in B6 mice (FIG. 7, FIG. 8); type: in vivo
Method: FIG. 7 graphically illustrates data showing that tumor Growth Curves in B16-F10 tumors implanted subcutaneously (s.c.) in B6 mice. Tumor-bearing mice were treated with a combination of Zaragozic Acid A and anti-PD1 antibody.
FIG. 8 graphically illustrates data showing that ZAA synergizes with anti-PD1 therapy. Tumor-bearing mice were treated with a combination of Zaragozic Acid A and anti-PD1 antibody.
At day 6 after tumor injection, the mice were randomized and treated every other day with ZAA (Santa Cruz Biotechnology) or vehicle control by alternating intravenous ([…]) and intraperitoneal ([…]) injections until day 16. For combination therapy with anti-PD1 (programmed cell death protein 1 (PD-1)) antibody, ZAA was administered with the same schedule, and three consecutive treatments of anti-PD1 (InVivoMab anti-mouse PD-1 (CD279), BioXCell, BE0033-2) at 200 μg/mouse were delivered IP on days 9, 10, and 11 after tumor injection. Isotype control for Syrian IgG was used (InVivoMAb polyclonal Syrian hamster IgG, BioXCell). For CD8-depleting experiments in combination with ZAA, anti-CD8a Ab (2.43 BioXCell) was administered intraperitoneally at a dose of 200 μg/mouse starting 2 days prior to tumor implantation for three consecutive days (−2, −1, 0), followed by 2 additional doses of 100 μg/mouse on days 4 and 8, and ZAA treatment scheduled was started at day 4 after tumor implantation. Isotype control for Rat IgG2 was used (InVivoMAb rat IgG2a isotype control, anti-trinitrophenol, BioXCell).

[1] = Dependence of antitumor actions of ZAA on the immune system (FIG. 6); type: in vivo
MC38-GP33-41 tumors = assay: ZAA treatment of mice implanted with MC38-GP33-41 tumors, with or without CD8 T cell depletion; type: in vivo
Description: (§1) For adoptive therapy experiments, 5×10^5 B16-GP33-41 cells or MC38-GP33-41, which were verified Mycoplasma negative by PCR, and authenticated by in vitro killing assays, were transplanted subcutaneously into the right flank of wild-type B6 mice. After tumors became palpable, 7-8 days after transplantation, in vitro activated and expanded P14 CD8 T cells were transferred intravenously. For comparison of TIL accumulation in a mixed transfer setting, naive P14 CD8 T cells were activated, transduced and expanded with 50 U/mL of hIL-2 for 2-3 days; cells transduced with control constructs (Cd19 shRNAmir) or experimental constructs (Srebf2 shRNAmir) were mixed 1:1 and 1×10^6 P14 cells were transferred intravenously. For efficacy studies, transduced cells were expanded for 5-6 days; transduced cells were then sorted, and 1×10^6-2.5×10^6 cells were transferred intravenously into mice with established MC38-GP33-41 or B16-GP33-41 tumors. Tumors were monitored daily, and mice with ulcerated tumors or tumors exceeding 400 mm^2 were euthanized, in accordance with Univ. Calif. San Diego (UCSD) Institutional Animal Care and Use Committee (IACUC).
At day 6 after tumor injection, the mice were randomized and treated every other day with ZAA (Santa Cruz Biotechnology) or vehicle control by alternating intravenous ([…]) and intraperitoneal ([…]) injections until day 16. For combination therapy with anti-PD1 (programmed cell death protein 1 (PD-1)) antibody, ZAA was administered with the same schedule, and three consecutive treatments of anti-PD1 (InVivoMab anti-mouse PD-1 (CD279), BioXCell, BE0033-2) at 200 μg/mouse were delivered IP on days 9, 10, and 11 after tumor injection. Isotype control for Syrian IgG was used (InVivoMAb polyclonal Syrian hamster IgG, BioXCell). […]

CD19 CAR T cell = assay: ZAA combined with CD19 CAR T cell treatment of established solid tumors (FIG. 9); type: in vivo, mice
Description: FIG. 9 graphically illustrates data showing that ZAA can be combined with CAR T cell treatment of established solid tumors to increase the ability of CAR T cells to accumulate intratumorally. Tumor-bearing mice received tumor-specific CAR T cells in combination with Zaragozic Acid A. Tumor cells contained the surface protein CD19, which is recognized by the CAR anti-CD19 on the CD8 T cell (CD19 CAR T cell).

[2] = tested on: B16-GP33-41 melanoma tumors; assay: ZAA combined with anti-PD-1 in B16-GP33-41 melanoma tumors; type: in vivo, mice; settings: ZAA combined with anti-PD-1 treatment
Description: as §1
At day 6 after tumor injection, the mice were randomized and treated every other day with ZAA (Santa Cruz Biotechnology) or vehicle control by alternating intravenous ([…]) and intraperitoneal ([…]) injections until day 16. […]

P14 CD8 T cells = type: in vivo, mice
[3] = combination of Zaragozic Acid A and anti-PD1 antibody, B16-F10 s.c.
[4] = ZAA vs vehicle, MC38-GP33-41 tumors

| SMILES | interaction with anti-PD1 therapy (B16-F10 tumors; FIG. 8, independent tumor growth curves from FIG. 7) | treatment of established tumors, efficacy of the combination (B16-F10 tumors; [3]) | treatment of established tumors, safety of the combination (B16-F10 tumors; [3]) | antitumor actions, dependence on the immune system [1] | dependence of the antitumor effect on CD8 T cells (MC38-GP33-41 tumors; ZAA in combination with CD8 T cell depletion) | survival of mice (MC38-GP33-41 tumors; [4]) | tumor growth (MC38-GP33-41 tumors; [4]) | interaction with CD19 CAR T cell therapy (CD19 CAR T cell; FIG. 9) | ability of CAR T cells to accumulate intratumorally (CD19 CAR T cell; tumor-specific CD19 CAR T cells in combination with ZAA, CD19-bearing tumor cells) | control of B16-GP33-41 melanoma tumors [2] | accumulation of P14 CD8 T cells responding to LCMV in the SI (P14 CD8 T cells; day 7 of infection, compared to the control group (vehicle)) | SI TRM (P14 CD8 T cells; day 21 after LCMV infection) | accumulation of memory T cells in the spleen (P14 CD8 T cells; day 21 after LCMV infection) |
| --- | --- | --- | --- | --- | --- | --- | --- | --- | --- | --- | --- | --- | --- |
| C=C(CCC12O[C@H](C(=O)O)[C@@](O)(C(=O)O)C(C(=O)O)(O1)[C@H](OC(=O)/C=C/[C@@H](C)C[C@@H](C)CC)[C@H]2O)[C@@H](OC(C)=O)[C@H](C)Cc1ccccc1 (stereo partly shown) [ZAA, zaragozic acid A] | synergizes | effectively | safely | depend on the immune system | CD8-dependent | improved | reduced | synergizes | increase | greater control | – | – | – |
| CC[C@H](C)C(=O)O[C@H]1C[C@@H](C)C=C2C=C[C@H](C)[C@H](CC[C@@H]3C[C@@H](O)CC(=O)O3)[C@H]21 [lovastatin] | – | – | – | – | – | – | – | – | – | – | impaired | sustained loss | impaired accumulation |
